Test results from US10023593B2, “ALK kinase inhibitor, and preparation method and uses thereof” (BEIJING PEARL BIOTECHNOLOGY LIMITED LIABILITY COMPANY, priority 2014, dated 2018).

Assays:
[1] = system: NCI-H2228 cell line; experiment: CellTiter-Glo cell proliferation inhibition on NCI-H2228 cell line; type: cell-based; details: Homo sapiens, NCI-H2228, 96 h, NCI-H2228 cells, 5000 cells/well, 4 days drug treatment
In short: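 NCI-H2228 cells, 5000/well in RPMI-1640 + 10% FBS, treated with compounds 2 h after seeding (0.5% DMSO final) for 4 days at 37° C. Viability by CellTiter-Glo luminescence; inhibition relative to DMSO control, IC50 from curve fit.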

[2] = biological target: T1, L1196M mutant ALK kinase (Homo sapiens, UniProt Q9UM73, L1196M); experiment: HTRF KinEASE-TK assay, inhibitory activity on L1196M mutant ALK kinase; type: biochemical; details: L1196M mutant ALK 1 ng/μl, substrate 1 μM, ATP 5 μM, 30° C. 35 minutes, read-out: Inhibition on ALK kinases (L1196M mutant), IC50
T1 construct: purchased Sino-US Crown Bioscience, Inc. batch number ALKm_20110923
In short: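 HTRF TK assay: mutant kinase 1 ng/μl, substrate 1 μM, ATP 5 μM, 5 mM MgCl2, 1 mM DTT, 1% DMSO, 35 min at 30 °C. 665/615 ratio read; inhibition normalised to no-compound and 10.4 μM LDK-378 controls; IC50 from curve fit.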

[3] = biological target: cytochrome P450 2C19 (Homo sapiens, UniProt P33261); experiment: Inhibitory activity on cytochrome P450 2C19; type: in vitro ADME; details: no significant inhibition
[4] = biological target: cytochrome P450 2D6 (Homo sapiens, UniProt P10635); experiment: Inhibitory activity on cytochrome P450 2D6; type: in vitro ADME; details: no significant inhibition
[5] = biological target: T2, cytochrome P450 1A2 (Homo sapiens, UniProt P05177); experiment: Inhibitory activity on cytochrome P450 1A2; type: in vitro ADME; details: no significant inhibition
T2 sequence (P05177 1-516): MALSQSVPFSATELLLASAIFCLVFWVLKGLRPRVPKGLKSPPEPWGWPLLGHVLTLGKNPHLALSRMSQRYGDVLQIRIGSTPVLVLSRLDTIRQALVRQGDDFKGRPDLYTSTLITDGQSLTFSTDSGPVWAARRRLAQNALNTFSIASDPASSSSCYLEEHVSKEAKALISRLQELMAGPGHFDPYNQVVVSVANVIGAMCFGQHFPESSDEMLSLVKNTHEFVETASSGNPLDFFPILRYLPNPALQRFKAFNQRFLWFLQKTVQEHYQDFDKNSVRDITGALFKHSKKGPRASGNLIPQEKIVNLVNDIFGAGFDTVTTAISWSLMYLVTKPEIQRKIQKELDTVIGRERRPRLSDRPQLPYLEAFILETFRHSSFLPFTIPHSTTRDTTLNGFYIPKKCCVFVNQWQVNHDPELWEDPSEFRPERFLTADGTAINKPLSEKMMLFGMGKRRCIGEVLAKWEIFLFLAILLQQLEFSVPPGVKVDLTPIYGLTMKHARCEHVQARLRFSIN

cytochrome P450 2C19, sequence (P33261 whole entry): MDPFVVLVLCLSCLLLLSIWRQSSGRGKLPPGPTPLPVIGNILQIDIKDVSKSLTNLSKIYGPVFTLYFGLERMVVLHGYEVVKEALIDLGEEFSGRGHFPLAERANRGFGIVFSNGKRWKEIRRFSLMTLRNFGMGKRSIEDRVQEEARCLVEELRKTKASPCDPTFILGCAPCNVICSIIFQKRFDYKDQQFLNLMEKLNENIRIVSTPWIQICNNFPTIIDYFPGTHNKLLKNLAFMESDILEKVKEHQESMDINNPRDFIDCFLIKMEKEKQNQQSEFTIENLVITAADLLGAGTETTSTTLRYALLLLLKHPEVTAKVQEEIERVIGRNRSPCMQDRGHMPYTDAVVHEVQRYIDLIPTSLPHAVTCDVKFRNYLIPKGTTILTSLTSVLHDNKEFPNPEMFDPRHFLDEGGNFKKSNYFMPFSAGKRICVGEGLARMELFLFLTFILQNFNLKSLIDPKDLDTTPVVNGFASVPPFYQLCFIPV
cytochrome P450 2D6, sequence (P10635 whole entry): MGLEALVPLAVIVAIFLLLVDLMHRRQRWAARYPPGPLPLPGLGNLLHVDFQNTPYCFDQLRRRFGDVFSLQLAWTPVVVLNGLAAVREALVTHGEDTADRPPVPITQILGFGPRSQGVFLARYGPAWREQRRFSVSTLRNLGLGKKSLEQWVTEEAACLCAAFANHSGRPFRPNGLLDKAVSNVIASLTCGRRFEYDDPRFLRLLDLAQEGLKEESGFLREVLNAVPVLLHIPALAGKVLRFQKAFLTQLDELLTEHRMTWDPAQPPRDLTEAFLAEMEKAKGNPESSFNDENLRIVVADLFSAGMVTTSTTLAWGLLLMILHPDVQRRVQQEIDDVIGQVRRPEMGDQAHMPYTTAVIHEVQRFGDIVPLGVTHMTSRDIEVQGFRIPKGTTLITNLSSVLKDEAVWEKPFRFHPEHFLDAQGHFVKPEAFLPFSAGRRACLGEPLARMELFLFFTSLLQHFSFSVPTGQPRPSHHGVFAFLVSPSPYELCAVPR
T1 sequence (Q9UM73 19-1620 L1196M): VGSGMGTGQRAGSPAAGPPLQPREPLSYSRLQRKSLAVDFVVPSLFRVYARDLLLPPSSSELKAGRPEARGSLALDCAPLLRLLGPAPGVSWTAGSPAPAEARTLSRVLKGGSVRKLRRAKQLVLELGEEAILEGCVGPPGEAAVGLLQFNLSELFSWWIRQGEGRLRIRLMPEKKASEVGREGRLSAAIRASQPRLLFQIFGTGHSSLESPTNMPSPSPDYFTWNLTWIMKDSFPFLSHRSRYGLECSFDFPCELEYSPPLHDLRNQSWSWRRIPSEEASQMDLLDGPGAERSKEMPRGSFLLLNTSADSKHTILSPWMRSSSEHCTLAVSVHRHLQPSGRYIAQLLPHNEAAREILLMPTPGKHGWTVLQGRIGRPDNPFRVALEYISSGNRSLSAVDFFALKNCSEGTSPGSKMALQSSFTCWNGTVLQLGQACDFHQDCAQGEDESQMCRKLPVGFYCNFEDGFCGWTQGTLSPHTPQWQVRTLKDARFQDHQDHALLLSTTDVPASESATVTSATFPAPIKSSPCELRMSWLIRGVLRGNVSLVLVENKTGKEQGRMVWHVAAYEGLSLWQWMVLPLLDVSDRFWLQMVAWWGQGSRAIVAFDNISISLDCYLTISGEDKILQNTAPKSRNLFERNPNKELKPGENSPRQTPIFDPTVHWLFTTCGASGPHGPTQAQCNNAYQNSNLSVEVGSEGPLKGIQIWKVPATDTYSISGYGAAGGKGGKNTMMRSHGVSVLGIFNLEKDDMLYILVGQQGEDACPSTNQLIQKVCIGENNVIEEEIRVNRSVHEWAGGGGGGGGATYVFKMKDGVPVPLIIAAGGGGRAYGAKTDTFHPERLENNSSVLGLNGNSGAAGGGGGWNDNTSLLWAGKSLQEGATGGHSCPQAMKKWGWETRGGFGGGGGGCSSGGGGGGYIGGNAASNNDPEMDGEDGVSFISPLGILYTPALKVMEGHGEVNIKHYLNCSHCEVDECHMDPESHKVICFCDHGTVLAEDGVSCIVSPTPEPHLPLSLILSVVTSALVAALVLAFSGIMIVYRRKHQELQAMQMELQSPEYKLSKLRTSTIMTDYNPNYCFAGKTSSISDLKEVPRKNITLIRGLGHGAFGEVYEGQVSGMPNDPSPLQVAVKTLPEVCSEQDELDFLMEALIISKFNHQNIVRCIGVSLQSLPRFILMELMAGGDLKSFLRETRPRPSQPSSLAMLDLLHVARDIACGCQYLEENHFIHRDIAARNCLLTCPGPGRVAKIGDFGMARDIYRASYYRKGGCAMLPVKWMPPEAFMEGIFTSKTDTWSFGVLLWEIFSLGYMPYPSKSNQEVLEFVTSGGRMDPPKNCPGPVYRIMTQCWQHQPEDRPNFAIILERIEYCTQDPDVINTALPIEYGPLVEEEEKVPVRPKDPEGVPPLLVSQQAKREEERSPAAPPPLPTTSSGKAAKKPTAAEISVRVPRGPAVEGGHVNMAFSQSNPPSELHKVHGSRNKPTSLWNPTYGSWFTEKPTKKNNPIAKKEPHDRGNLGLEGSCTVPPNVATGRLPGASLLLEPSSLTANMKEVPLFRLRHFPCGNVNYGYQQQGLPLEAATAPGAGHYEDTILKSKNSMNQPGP

CC(C)Oc1cc(C2CCNCC2)ccc1Nc1ncc(Cl)c(Nc2cn(C)nc2S(=O)(=O)C(C)C)n1 [Final product 1, 5-chloro-N^2-[2-isopropoxy-4-(piperidin-4-yl)phenyl]-N^4-(3-isopropylsulfonyl-1-methyl-1H-pyrazol-4-yl)pyrimidin-2,4-diamine]
IC50 [1]: 0.184 µM | IC50 [2]: 0.008 µM

Cc1cc(Nc2ncc(Cl)c(Nc3cn(C)nc3S(=O)(=O)C(C)C)n2)c(OC(C)C)cc1C1CCNCC1 [Final product 2]
IC50 [1]: 0.198 µM | IC50 [2]: 0.016 µM

Cc1cc(Nc2ncc(Cl)c(Nc3cn(C)nc3S(=O)(=O)C(C)C)n2)c(OC(C)C)cc1C1CCNC1 (stereo not shown) [Final product 3]
IC50 [1]: 0.364 µM | IC50 [2]: 0.005 µM

Cc1cc(Nc2ncc(Cl)c(Nc3cn(C)nc3S(=O)(=O)C(C)C)n2)c(OC2CC2)cc1C1CCN(C)C1 (stereo not shown) [Final product 53]
IC50 [1]: 0.133 µM | IC50 [2]: 0.004 µM

Cc1cc(Nc2ncc(Cl)c(Nc3cn(C)nc3S(=O)(=O)C(C)C)n2)c(OC2CC2)cc1C1CN(C)C1 [Final product 54]
IC50 [1]: 0.018 µM | IC50 [2]: 0.005 µM

Cc1cc(Nc2ncc(Cl)c(Nc3cn(C)nc3S(=O)(=O)CC(C)C)n2)c(OC2CC2)cc1C1CN(C)C1 [Final product 55]
IC50 [1]: 0.181 µM | IC50 [2]: 0.008 µM

Cc1cc(Nc2ncc(Cl)c(Nc3cn(C4CC4)nc3S(=O)(=O)C(C)C)n2)c(OC2CC2)cc1C1CCN(C)CC1 [Final product 56]
IC50 [1]: 0.142 µM | IC50 [2]: 0.011 µM

Cc1cc(Nc2ncc(Cl)c(Nc3cn(C)nc3S(=O)(=O)CC(C)C)n2)c(OC2CC2)cc1C1CCN(C)CC1 [Final product 57]
IC50 [3]: > 10 µM | IC50 [1]: 0.108 µM | IC50 [2]: 0.011 µM | IC50 [4]: > 10 µM | IC50 [5]: > 10 µM

COC1CN(C)CCC1c1cc(OC2CC2)c(Nc2ncc(Cl)c(Nc3cn(C)nc3S(=O)(=O)C(C)C)n2)cc1C (stereo not shown) [Final product 58]
IC50 [1]: 0.055 µM | IC50 [2]: 0.006 µM

COCC1CC(c2cc(OC3CC3)c(Nc3ncc(Cl)c(Nc4cn(C)nc4S(=O)(=O)C(C)C)n3)cc2C)CCN1C (stereo not shown) [Final product 77]
IC50 [3]: > 10 µM | IC50 [1]: 0.025 µM | IC50 [2]: 0.004 µM | IC50 [4]: > 10 µM | IC50 [5]: > 10 µM

COCC1CC(c2cc(OC3CC3)c(Nc3ncc(Cl)c(Nc4cn(C)nc4S(=O)(=O)CC(C)C)n3)cc2C)CCN1C (stereo not shown) [Final product 79]
IC50 [1]: 0.062 µM | IC50 [2]: 0.008 µM

Cc1cc(Nc2ncc(Cl)c(Nc3cn(C4CC4)nc3S(=O)(=O)C(C)C)n2)c(OC(C)C)cc1C1CCN(C)CC1 [Final product 81]
IC50 [1]: 0.19 µM | IC50 [2]: 0.025 µM

COCCN1CCC(c2cc(OC3CC3)c(Nc3ncc(Cl)c(Nc4cn(C)nc4S(=O)(=O)C(C)C)n3)cc2C)CC1 [Final product 82]
IC50 [3]: > 10 µM | IC50 [1]: 0.043 µM | IC50 [2]: 0.007 µM | IC50 [4]: > 10 µM | IC50 [5]: > 10 µM

Cc1cc(Nc2ncc(Cl)c(Nc3cn(C)nc3S(=O)(=O)C(C)C)n2)c(OC2CC2)cc1C1CCN(C)CC1F (stereo not shown) [Final product 87]
IC50 [1]: 0.113 µM | IC50 [2]: 0.01 µM

Cc1cc(Nc2ncc(Cl)c(Nc3cn(C)nc3S(=O)(=O)C(C)C)n2)c(OC2CC2)cc1C1CCN(C)CC1(F)F (stereo not shown) [Final product 88]
IC50 [1]: 0.072 µM | IC50 [2]: 0.015 µM

Cc1cc(Nc2ncc(Cl)c(Nc3cn(C)nc3S(=O)(=O)C(C)C)n2)c(OC2CC2)cc1C1CCN(C)CC1C (stereo not shown) [Final product 90]
IC50 [1]: 0.045 µM | IC50 [2]: 0.004 µM

Cc1cc(Nc2ncc(Cl)c(Nc3cn(C)nc3S(=O)(=O)C(C)C)n2)c(OC2CC2)cc1C1CCC(NS(C)(=O)=O)CC1 (stereo not shown) [Final product 205, N-(4-(4-(5-chloro-4-(3-(isopropylsulfonyl)-1-methyl-1H-pyrazol-4-amine)pyrimidin-2-amine)-5-cyclopropoxy-2-methylphenyl)cyclohexyl)methanesulfonamide]
IC50 [3]: > 10 µM | IC50 [1]: 0.151 µM | IC50 [2]: 0.02 µM | IC50 [4]: > 10 µM | IC50 [5]: > 10 µM
